Data from US12409161B2, “Compound for treating neurodegenerative disorders” (FUDAN UNIVERSITY, priority 2019, dated 2025).

Tests used:
[1] = target: T1, mutant ATXN1 protein (His-ATXN1-Q92) (Homo sapiens, UniProt P54253, INS208QQQQQQQQQQQQQQQQQQQQQQQQQQQQQQQQQQQQQQQQQQQQQQQQQQQQQQQQQQQQQQQQQQQQQQQQQQQQQQQQ); assay: HTRF of mutant ATXN1 level in HEK293T cells expressing His-ATXN1-Q92; assay type: cell-based; conditions: 100 nM for 2 days, HTRF anti-His-Tb/MW1-D2
T1 construct: expressed in transfected cells; host or cells: HEK293T (ATCC, CRL-3216)
T1 sequence (P54253 with tags, fused parts or gaps with the stated changes): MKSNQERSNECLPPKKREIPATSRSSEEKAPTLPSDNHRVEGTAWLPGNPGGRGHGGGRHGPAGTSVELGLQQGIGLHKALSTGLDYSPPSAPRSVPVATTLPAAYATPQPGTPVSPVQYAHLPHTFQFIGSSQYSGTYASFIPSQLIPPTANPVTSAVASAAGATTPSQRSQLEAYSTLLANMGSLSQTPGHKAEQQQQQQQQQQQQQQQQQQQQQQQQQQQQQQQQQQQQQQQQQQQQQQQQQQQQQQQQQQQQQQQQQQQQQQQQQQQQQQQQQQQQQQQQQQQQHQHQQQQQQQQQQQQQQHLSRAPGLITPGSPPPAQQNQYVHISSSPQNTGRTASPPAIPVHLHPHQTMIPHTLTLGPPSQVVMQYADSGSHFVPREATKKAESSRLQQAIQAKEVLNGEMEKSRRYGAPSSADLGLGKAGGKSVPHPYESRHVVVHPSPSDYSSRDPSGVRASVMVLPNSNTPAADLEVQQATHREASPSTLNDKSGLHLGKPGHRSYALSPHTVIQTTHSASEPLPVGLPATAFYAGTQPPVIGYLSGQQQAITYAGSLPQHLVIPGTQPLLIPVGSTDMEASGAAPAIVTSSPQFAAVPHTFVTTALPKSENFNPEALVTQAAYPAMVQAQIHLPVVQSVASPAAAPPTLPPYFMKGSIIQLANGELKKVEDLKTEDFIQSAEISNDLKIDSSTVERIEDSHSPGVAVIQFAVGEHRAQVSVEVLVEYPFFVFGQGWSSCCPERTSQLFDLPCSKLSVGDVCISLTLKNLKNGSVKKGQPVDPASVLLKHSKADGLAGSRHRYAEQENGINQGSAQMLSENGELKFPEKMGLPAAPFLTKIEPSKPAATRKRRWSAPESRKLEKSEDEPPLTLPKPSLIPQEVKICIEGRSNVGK

[2] = target: T2, wild-type ATXN3 protein (ATXN3-Q27) (Homo sapiens, UniProt P54252, G306R/INS305QQQQQQQQQQQQQQQQQ/V212M); assay: Western-blot of ATXN3 level in fibroblasts; assay type: cell-based; conditions: 100 nM compound 1 or 50 nM compound 2 for 2 days; Western-blots
T2 construct: endogenous in cells; host or cells: wild-type fibroblasts (Q27), and possibly the normal allele of SCA3 patient fibroblasts
T2 sequence (P54252 with tags, fused parts or gaps isoform P54252-1 with the stated changes): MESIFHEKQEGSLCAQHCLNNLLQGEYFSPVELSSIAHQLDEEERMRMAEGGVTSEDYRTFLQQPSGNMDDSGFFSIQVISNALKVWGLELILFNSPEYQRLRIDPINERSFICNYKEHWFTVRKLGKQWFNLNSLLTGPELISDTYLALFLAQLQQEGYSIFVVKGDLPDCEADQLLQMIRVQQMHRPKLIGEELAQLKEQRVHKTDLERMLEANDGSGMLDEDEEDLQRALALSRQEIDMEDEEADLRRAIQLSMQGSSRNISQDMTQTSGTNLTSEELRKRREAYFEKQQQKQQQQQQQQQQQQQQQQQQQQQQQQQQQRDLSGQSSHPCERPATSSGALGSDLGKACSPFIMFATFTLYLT
Experimental: (§1) Some primary patient fibroblasts and wild-type cells are from HD patients (Q47, Q55) of the Mongolian Huntington's disease family and healthy controls (WT, Q19). SCA3 cell line was from patient (Q74). The HD Q68 fibroblast cell line was from Coriell Cell Repositories (Camden, N.J., USA). Immortalized fibroblasts and induced stem cells (iPSCs) are prepared from primary fibroblasts. HEK293T cells were from ATCC.
(§2) Then the levels of mutant ATXN3 protein (ATXN3-Q74, SEQ ID NO: 3) and wild-type ATXN3 protein (ATXN3-Q27, SEQ ID NO: 4) were determined by Western-blots (FIG. 22). […] Therefore, the compound can be used to treat SCA3.

[3] = test system: HD patient iPSC-derived neurons (Q47); assay: Neuronal apoptosis of HD patient iPSC-derived neurons after BDNF removal (TUBB3 immunostaining, caspase-3 activity); assay type: cell-based, human; conditions: 100 nM compound 1 or 50 nM compound 2 for 1 day, then BDNF removal
Experimental: Immunofluorescence: cells were washed, fixed, permeabilized and blocked, then incubated with primary antibody overnight at 4° C., then washed three times with blocking buffer, and incubated with secondary antibody for 1 hour at room temperature, stained with DAPI, and mounted. Images were taken by Zeiss Axio Vert A1 confocal microscope. TUBB3 or co-localization was analyzed using ImageJ.
Then the cells were stressed (by BDNF removal).
Neuronal specific tubulin marker TUBB3 […]. The TUBB3 signal covered area was normalized to the cell nuclei counts, and the data was normalized to the wild type controls to analyze neuronal apoptosis (FIG. 12).
NucView 488 (Biotium, 30029) was used to detect active caspase-3. After removing BDNF, Incucyte (Essen Bioscience, IncuCyte FLR) was used to capture images every 3 hours in the incubator, which were analyze with Incucyte 2011A software. Three batches were tested and the results were consistent (FIG. 13).

[4] = test system: Q72-GFP; assay: Level of polyQ-GFP fusion protein in HEK293T cells (Incucyte fluorescence counting); assay type: cell-based; conditions: 100 nM compound 1 or 50 nM compound 2 for 2 days
Text: (§3) The inventors used HEK293T cells exogenously expressing polyQ-GFP fusion proteins (Q72-GFP or Q25-GFP) to detect compounds that can control the level of proteins containing expanded polyglutamine in the cells. The method was as follows:
(§4) (1) PolyQ-GFP cDNA sequence (expressing Met-polyQ-GFP, wherein polyQ was Q72 or Q25) was synthesized de novo and subcloned into pcDNA vector. It was transfected into HEK293T cells (ATCC, CRL-3216) through forward transfection to obtain Q72-GFP expressing cells and Q25-GFP expressing cells, respectively. And the same method was used to obtain cells expressing Q53-GFP, cells expressing Q46-GFP, and cells expressing Q38-GFP.
(§5) (3) The Q72-GFP expressing cells and Q25-GFP expressing cells obtained in step (1) were used. […] Then the level of polyQ-GFP was measured by Incucyte fluorescence counting (FIG. 1).

[5] = test system: Q25-GFP; assay: as above; assay type: cell-based; conditions: 100 nM compound 1 or 50 nM compound 2 for 2 days
Text: as §3, §4, §5

[6] = target: T3, human HTT full-length protein (Q128) (Homo sapiens, UniProt P42858); assay: mHTT level in heads of Huntington's disease Drosophilae (HTRF); assay type: in vivo, Drosophila; conditions: food with 10 μM in 400 μL DMSO, 6 days, head protein, HTRF 2B7/MW1
T3 construct: transgenic Drosophilae expressing human HTT full-length protein (Q128); tissue Bloomington Drosophila Stock Center (fly lines); host or cells: heads of elav-GAL4 x UAS-fl-HTT-Q128 Drosophila
Experimental: Crosses were set up between virgin female Drosophilae carrying elav-GAL4 driver and the UAS-fl-HTT-Q16 or UAS-fl-HTT-Q128 male Drosophilae to generate a transgenic Drosophilae driven by elav-GAL4 to express human HTT full-length protein (Q16) or (Q128) in the nervous system.
The negative control group was given the corresponding solvent DMSO, and the positive drug groups was given the corresponding positive drug.
Drosophilae were kept in standard food at 25° C. The newly hatched Drosophilae were transferred to vials with food containing the positive drug (10 μM in 400 μL DMSO) or DMSO for control. The corn food was changed every other day.
The mHTT level was measured by HTRF (antibody pair: 2B7/MW1), where each sample included head proteins from five Drosophila (FIG. 14).

[7] = target: T4, mutant ATXN3 protein (ATXN3-Q74) (Homo sapiens, UniProt P54252, G306R/INS305QQQQQQQQQQQQQQQQQQQQQQQQQQQQQQQQQQQQQQQQQQQQQQQQQQQQQQQQQQQQQQQQ/V212M); assay: Western-blot of ATXN3 level in SCA3 patient fibroblasts (Q74); assay type: cell-based; conditions: 100 nM compound 1 or 50 nM compound 2 for 2 days, Western-blots
T4 construct: endogenous in cells; host or cells: SCA3 patient fibroblasts (Q74)
T4 sequence (P54252 with tags, fused parts or gaps isoform P54252-1 with the stated changes): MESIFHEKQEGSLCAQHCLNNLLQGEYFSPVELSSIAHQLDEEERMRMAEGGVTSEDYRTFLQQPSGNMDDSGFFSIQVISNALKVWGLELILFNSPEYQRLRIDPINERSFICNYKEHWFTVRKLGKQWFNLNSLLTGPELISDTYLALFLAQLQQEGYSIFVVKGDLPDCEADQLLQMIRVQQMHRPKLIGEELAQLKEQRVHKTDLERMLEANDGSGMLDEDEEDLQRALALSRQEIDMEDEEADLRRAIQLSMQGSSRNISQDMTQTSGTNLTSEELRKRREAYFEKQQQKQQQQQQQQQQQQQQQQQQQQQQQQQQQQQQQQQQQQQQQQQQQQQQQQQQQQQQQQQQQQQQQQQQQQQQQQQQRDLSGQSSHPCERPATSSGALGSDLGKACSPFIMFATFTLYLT
Experimental: as §1, §2

[8] = target: T5, wtHTT (Mus musculus, UniProt P42859); assay: Western-blot of HTT levels in primary cultured Hdh^Q7/Q7 mouse cortical neurons; assay type: cell-based; parameters: endogenous in cells; host or cells: primary cortical neurons of newborn Hdh Q140/Q7 or Hdh Q7/Q7 mice; conditions: treated 2 days, Western-blots (antibody 2166)
Experimental: (§6) Primary cultured cortical neurons: The brains of Hdh^Q140/Q7 and Hdh^Q7/Q7 newborn mice (P0) were dissected, digested, dissociated, and cultured.
(§7) (1) The primary cultured Hdh^Q140/Q7 and Hdh^Q7/Q7 mouse cortical neuron cells were treated with the compound for 2 days. Then the levels of mHTT and wtHTT were detected by Western-blots (antibody 2166) (FIG. 4 and FIG. 5). […]

[9] = target: T6, mHTT (Homo sapiens, UniProt P42858, INS38QQQQQQQQQQQQQQQQQQQQQQQQQQ); assay: HTRF of mHTT in HD patient iPSC-derived neurons (Q47); assay type: cell-based
T6 construct: endogenous in cells; host or cells: HD patient iPSC-derived neurons (Q47)
T6 sequence (P42858 with tags, fused parts or gaps, stated change not applied): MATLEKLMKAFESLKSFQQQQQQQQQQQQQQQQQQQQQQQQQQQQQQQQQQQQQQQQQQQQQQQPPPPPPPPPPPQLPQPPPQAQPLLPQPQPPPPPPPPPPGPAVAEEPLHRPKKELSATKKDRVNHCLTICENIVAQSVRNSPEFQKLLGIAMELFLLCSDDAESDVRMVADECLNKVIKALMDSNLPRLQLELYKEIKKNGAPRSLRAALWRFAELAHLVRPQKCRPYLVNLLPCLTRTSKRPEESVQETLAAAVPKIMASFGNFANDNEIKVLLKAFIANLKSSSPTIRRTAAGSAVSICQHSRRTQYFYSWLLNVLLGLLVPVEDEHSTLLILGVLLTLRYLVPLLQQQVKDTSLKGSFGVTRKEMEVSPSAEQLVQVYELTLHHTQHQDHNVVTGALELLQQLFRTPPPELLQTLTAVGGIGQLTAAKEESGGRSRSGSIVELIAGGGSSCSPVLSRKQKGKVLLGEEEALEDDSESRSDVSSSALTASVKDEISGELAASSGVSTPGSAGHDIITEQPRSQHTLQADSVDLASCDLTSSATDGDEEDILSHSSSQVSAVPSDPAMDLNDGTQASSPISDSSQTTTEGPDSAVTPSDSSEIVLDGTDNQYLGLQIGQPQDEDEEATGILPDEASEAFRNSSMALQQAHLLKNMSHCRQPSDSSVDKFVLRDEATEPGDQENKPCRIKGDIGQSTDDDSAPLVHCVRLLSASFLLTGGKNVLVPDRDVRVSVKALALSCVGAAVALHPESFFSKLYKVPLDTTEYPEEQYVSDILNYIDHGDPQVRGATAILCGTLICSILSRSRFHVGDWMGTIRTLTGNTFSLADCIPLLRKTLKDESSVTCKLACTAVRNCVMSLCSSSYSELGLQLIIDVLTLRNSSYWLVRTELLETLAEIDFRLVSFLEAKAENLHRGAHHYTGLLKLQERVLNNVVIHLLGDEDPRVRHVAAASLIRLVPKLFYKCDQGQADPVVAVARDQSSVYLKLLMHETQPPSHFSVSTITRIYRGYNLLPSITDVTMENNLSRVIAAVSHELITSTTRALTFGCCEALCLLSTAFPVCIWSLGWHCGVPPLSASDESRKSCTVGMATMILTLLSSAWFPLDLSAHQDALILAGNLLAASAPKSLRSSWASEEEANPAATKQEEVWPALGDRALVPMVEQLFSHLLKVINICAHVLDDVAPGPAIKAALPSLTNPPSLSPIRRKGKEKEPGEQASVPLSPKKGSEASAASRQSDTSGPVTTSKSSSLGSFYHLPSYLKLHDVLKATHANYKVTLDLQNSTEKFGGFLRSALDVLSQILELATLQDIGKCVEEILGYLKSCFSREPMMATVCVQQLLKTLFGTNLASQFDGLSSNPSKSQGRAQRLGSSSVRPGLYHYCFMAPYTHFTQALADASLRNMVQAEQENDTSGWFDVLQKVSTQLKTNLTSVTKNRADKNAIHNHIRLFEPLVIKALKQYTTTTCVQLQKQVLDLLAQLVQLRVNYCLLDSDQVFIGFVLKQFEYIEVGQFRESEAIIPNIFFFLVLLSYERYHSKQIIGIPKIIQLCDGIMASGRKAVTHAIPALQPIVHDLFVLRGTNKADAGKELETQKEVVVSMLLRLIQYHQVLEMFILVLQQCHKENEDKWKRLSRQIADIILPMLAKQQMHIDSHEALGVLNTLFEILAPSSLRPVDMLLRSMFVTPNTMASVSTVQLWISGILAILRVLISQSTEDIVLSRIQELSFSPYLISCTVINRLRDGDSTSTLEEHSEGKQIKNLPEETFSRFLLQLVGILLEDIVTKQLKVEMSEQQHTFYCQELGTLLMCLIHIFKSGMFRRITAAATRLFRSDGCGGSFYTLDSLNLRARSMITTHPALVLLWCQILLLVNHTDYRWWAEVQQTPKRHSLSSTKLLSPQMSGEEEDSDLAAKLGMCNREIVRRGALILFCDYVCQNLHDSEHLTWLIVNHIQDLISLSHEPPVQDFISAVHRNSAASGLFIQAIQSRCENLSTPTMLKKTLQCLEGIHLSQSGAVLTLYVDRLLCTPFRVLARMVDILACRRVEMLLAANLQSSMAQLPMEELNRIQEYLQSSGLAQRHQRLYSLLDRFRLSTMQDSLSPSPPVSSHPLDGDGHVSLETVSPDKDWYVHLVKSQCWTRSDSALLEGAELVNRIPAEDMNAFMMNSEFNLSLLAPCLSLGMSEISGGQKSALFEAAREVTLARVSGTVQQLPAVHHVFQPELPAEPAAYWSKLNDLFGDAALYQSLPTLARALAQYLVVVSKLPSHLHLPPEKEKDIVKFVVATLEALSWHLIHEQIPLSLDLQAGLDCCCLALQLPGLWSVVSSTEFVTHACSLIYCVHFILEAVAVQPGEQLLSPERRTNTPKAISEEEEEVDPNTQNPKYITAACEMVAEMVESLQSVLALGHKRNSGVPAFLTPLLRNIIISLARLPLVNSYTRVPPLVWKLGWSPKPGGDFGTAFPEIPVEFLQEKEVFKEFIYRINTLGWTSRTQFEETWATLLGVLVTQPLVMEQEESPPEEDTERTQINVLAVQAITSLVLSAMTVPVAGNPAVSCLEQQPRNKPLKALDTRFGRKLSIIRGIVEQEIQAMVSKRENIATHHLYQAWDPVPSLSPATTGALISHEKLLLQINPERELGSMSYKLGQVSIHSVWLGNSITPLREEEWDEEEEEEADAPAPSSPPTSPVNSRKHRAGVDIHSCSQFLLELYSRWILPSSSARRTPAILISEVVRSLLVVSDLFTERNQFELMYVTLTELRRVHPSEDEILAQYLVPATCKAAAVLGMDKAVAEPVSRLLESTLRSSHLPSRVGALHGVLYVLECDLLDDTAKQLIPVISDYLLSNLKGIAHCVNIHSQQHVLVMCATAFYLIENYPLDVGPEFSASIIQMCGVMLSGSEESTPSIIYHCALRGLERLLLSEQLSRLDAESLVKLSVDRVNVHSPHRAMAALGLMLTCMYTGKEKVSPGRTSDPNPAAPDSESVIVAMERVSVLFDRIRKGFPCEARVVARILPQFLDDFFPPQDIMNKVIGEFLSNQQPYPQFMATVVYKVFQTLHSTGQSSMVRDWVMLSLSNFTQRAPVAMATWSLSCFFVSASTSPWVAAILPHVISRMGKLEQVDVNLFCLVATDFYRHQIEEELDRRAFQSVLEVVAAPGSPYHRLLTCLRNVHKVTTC

[10] = target: T5, wtHTT; conditions: Hdh^Q140/Q7 mouse cortical neurons, treated 2 days, Western-blots (antibody 2166)
Experimental: as §6
(1) The primary cultured Hdh^Q140/Q7 and Hdh^Q7/Q7 mouse cortical neuron cells were treated with the compound for 2 days.

[11] = test system: mHTT; assay: Western-blot of HTT levels in primary cultured Hdh^Q140/Q7 mouse cortical neurons; assay type: cell-based; conditions: treated 2 days, Western-blots (antibody 2166)
Experimental: as §6, §7

[12] = target: T7, full-length mHTT (flHTT-Q73) (Homo sapiens, UniProt P42858, INS38QQQQQQQQQQQQQQQQQQQQQQQQQQQQQQQQQQQQQQQQQQQQQQQQQQQQ); assay: OI-RD detection of affinity to full-length HTT; assay type: binding
T7 construct: protein A (N, cleaved yes); made in house; host or cells: human embryonic kidney E293 cells
Experimental: (1) The human HTT gene (GenBank: NM_002111.8) with (CAG)23 or (CAG)73 was synthesized de novo by Genewiz Inc. The human HTT gene was cloned into the modified pCAG vector (from Addgene) with N-terminal protein A tag.
The protein is purified with IgG monoclonal antibody-agarose (Smart-lifesciences, SA030010), digested with TEV protease to remove the protein A tag, and further purified with Mono Q and Superose 6 (5/150 GL) columns from GE healthcare. Validation is conducted using Coomassie blue staining and Western-blots.

[13] = test system: Q25-GFP; conditions: MST; 20 mM HEPES, pH 7.4, 150 mM NaCl; protein 500 nM
[14] = test system: mHTT aggregates; assay: mHTT aggregates in cortices of Hdh^Q140/Q7 mice (dot-blot, HTRF 4C9/4C9); assay type: in vivo, mouse; conditions: ip-injection, dot-blot 4C9 and HTRF 4C9/4C9
Experimental: (§8) Experimental method: The compound or control DMSO was diluted with 0.9% NaCl intravenous infusion solution to 0.05 μg/μL. One ip-injection (0.5 mg/kg) was conducted per day. After 14 days of injection, tissue extraction or behavioral experiment were conducted.
(3) mHTT aggregates in the cortices of Hdh^Q140/Q7 mice were detected by dot-blot experiment (antibody: 4C9, bar plot showing the results of two repetitions) and HTRF (antibody pair: 4C9/4C9). Sampling was repeated for each mouse two to three times on average (FIG. 20).

[15] = test system: mHTT; assay: Intraperitoneal injection: mHTT and wtHTT levels in cortices and striata of HD mice (Western-blots); assay type: in vivo, mouse; conditions: Hdh^Q140/Q7 mice, ip 0.5 mg/kg per day, 14 days
Experimental: as §8
(1) 13 Hdh^Q140/Q7 mice (5 months old) were randomized into 2 groups.
One ip-injection was conducted per day. After 14 days of injection, the protein was extracted and the levels of mHTT and wtHTT in the cortices of HD mice were detected by Western-blots (FIG. 18).
(2) A total of 13 mice Hdh^Q140/Q7 mice (10 months old) were used, 6-7 mice in each group. According to the above method, the mouse brain striatum neuronal protein was extracted and the levels of mHTT and wtHTT were detected by Western-blots (FIG. 19).

[16] = In vivo compound detection in brain tissues of ip-injected mice (LC-MS/MS); conditions: mouse, 2 hours after ip-injection (0.5 mg/kg), read-out: level of compound reached the brain tissue
Experimental: as §8
In vivo compound detection in brain tissues of ip-injected mice: 2 hours after ip-injection of DMSO or compound in mice, the brain was dissected, weighed, and the compound in the brain tissue was extracted, analyzed with UPLC-MS (Acquity Ultra Performance Liquid Chromatography System, Acquity UPLC BEH C18 (1.7 μm, 2.1×50 mm) column and Xevo TQ-S mass spectrometer, Waters Corporation, Milford, MA, USA) for LC-MS/MS analysis. […] The compound of the present invention can be delivered to the brain of mice through the BBB smoothly, which potentially facilitates oral administration of the compound.

[17] = test system: mHTT; assay: HTRF of mHTT in HD patient immortalized fibroblasts; conditions: at different doses (FIG. 10)
Experimental: Homogeneous time-resolved fluorescence (HTRF) analysis: the cell or tissue lysate was diluted with the original lysis buffer PBS+1% (v/v) Triton X-100+1×cOmplete™ protease inhibitor to lyse the sample, then HTRF assay buffer (50 mM NaH2PO4, 400 mM NaF, 0.1% BSA, 0.05% (v/v) Tween-20, 1% (v/v) Triton X-100, pH 7.4) was used to dilute the specified antibody pair for detection. In HTRF buffer, the donor antibody concentration was 0.023 ng/μL and the acceptor antibody concentration was 1.4 ng/μL.

[18] = test system: mHTT; assay: Intracerebroventricular injection: mHTT and wtHTT levels in cortices of HD mice (Western-blots); assay type: in vivo, mouse; conditions: Hdh^Q140/Q7 mice; icv 2 μL of 25 μM per day, 10 days; Western-blots (antibody 2166)
Experimental: Mice expressing wild-type HTT gene (Hdh^Q7/Q7) were from the Marian Difiglia laboratory of Massachusetts General Hospital, Harvard University.
Experimental animals: Hdh^Q140/Q7 mice (3 months old), 4 in each group.
Each test includes three repetitions for each sample, and the mean values was calculated (FIG. 17).

[19] = target: T8, normal ATXN3 protein (MBP-ATXN3-Q28) (Homo sapiens, UniProt P54252, INS305QQQQQQQQQQQQQQQQQQ); assay: MST detection of affinity to ATXN3; assay type: binding; conditions: method in 2.2
T8 construct: His8; made in house; host or cells: Escherichia coli Rosetta(DE3)pLysS
Experimental: (1) His8 tag and TEV protease cleavage site is added in pMal-C2x plasmid (from New England Biolabs) to prepare prokaryotic expression vector pMBP. The ATXN3 gene (GenBank: NM_001127696.2) is edited to control the length of the expanded polyglutamine, the gene is amplified and cloned into the prepared pMBP to obtain the pMBP-ATXN3-Q28 and pMBP-ATXN3-Q68 plasmids with polyQ repeated 28 and 68 times, respectively.
(2) The expression plasmids pMBP-ATXN3-Q28 and pMBP-ATXN3-Q68 were introduced into Escherichia coli Rosetta(DE3)pLsyS for expression. Preliminary purification was conducted with HisTrap HP column (GE Healthcare, 17524701). The product was concentrated by ultrafiltration and then further purified with Superose 6 Increase 10/300 GL size exclusion column (GE Healthcare).
(3) As verified by SDS-PAGE, the purity of the prepared human MBP-ATXN3-Q28 and MBP-ATXN3-Q68 exceeds 98%.

Compound | levels of mutant ATXN1 [1] | wild-type ATXN3 protein level [2] | loss of processes and shrinkage of HD neurons after removal of BDNF [3] | level of the protein containing expanded polyglutamine (Q72-GFP) [4] | level of the protein containing the shorter polyglutamine (Q25-GFP) [5] | mutant ATXN3 protein level [7] | level of mHTT in cortical neurons [11] | other results
Cc1ccc(C(=O)N(CCCN)[C@@H](c2nc3cc(Cl)ccc3c(=O)n2Cc2ccccc2)C(C)C)cc1 [compound 1, ispinesib] | Decreased levels | no decrease | significantly improved | effectively reduced | did not reduce | decrease | reduced | mHTT levels in transgenic Drosophilae [6]: reduced; wtHTT levels in cortical neurons [8]: did not reduce; mHTT levels in HD patient iPSC-derived neurons ([9]; neurons Q47, HTRF 2B7/MW1, method similar to 5.1): Decreased mHTT levels; level of wtHTT in cortical neurons [10]: hardly affected; Kon [12]: 6.43e-05 min/nM
O=c1cc(-c2ccccc2)c2ccc(O)c(O)c2o1 [compound 6] | Decreased levels | – | – | – | – | – | – | –
CC(=O)Nc1cc2ccccc2oc1=O [compound 5] | – | – | – | – | – | – | – | reduction of mHTT levels in HD patient iPSC-derived neurons ([9]; HTRF 2B7/MW1, same method as for compounds 1 and 2): approximately 26.8%
O=c1cc(-c2ccccc2)c2c(O)cc(O)cc2o1 [compound 2] | Decreased levels | no decrease | significantly improved | effectively reduced | did not reduce | decrease | reduced | binding affinity with Q25-GFP [13]: no binding affinity; mHTT aggregates in the cortices [14]: No increase in mHTT aggregates; levels of mHTT in the cortices [15]: reduced; levels of mHTT in the striata [15]: reduced; concentration at 2 h [16]: 9.48 ng/g; level of mHTT in HD patient immortalized fibroblasts [17]: reduced; mHTT level in cortices [18]: significantly reduced; binding with normal ATXN3 protein (MBP-ATXN3-Q28) [19]: did not bind
COc1ccc2c(c1)/C(=C/c1cnc[nH]1)C(=O)N2 [compound 4, Su9516] | Decreased levels | – | – | – | – | – | – | –
